Earlier results in US20110229902A1, “METHOD FOR DETERMINING THE […] OF FUNGI AND YEASTS, IN PARTICULAR OF A[…]” (STICHTING TER B[…] DE FARMACODYNAMIEK, priority 2008, published 2011).

Tests used:
Set-up in all cases: key: R = resistant; S = sensitive
[1] = test system: Aspergillus fumigatus cyp51A G54W; conditions: A. fumigatus isolate with cyp51A mutation G54W
[2] = test system: Aspergillus fumigatus cyp51A L98H + TR; conditions: A. fumigatus isolate with cyp51A L98H + TR (tandem repeat in promoter)
[3] = test system: Aspergillus fumigatus cyp51A G138C; conditions: A. fumigatus isolate with cyp51A mutation G138C
[4] = test system: Aspergillus fumigatus cyp51A G54X; conditions: A. fumigatus isolate with cyp51A mutation G54X
[5] = test system: Aspergillus fumigatus cyp51A M220X; conditions: A. fumigatus isolate with cyp51A mutation M220X

SMILES: CC[C@@H]([C@H](C)O)n1ncn(-c2ccc(N3CCN(c4ccc(OC[C@@H]5CO[C@@](Cn6cncn6)(c6ccc(F)cc6F)C5)cc4)CC3)cc2)c1=O [Posaconazole]
- resistance status (resistant or sensitive) [1]: R
- resistance status (resistant or sensitive) [2]: S
- resistance status (resistant or sensitive) [3]: S
- resistance status (resistant or sensitive) [4]: S
- resistance status (resistant or sensitive) [5]: S

SMILES: C[C@@H](c1nc(-c2ccc(C#N)cc2)cs1)[C@](O)(Cn1cncn1)c1ccc(F)cc1F [Ravuconazole]
- resistance status (resistant or sensitive) [1]: S
- resistance status (resistant or sensitive) [2]: R
- resistance status (resistant or sensitive) [3]: R
- resistance status (resistant or sensitive) [4]: S
- resistance status (resistant or sensitive) [5]: S

SMILES: C[C@@H](c1ncncc1F)[C@](O)(Cn1cncn1)c1ccc(F)cc1F [Voriconazole]
- resistance status (resistant or sensitive) [1]: S
- resistance status (resistant or sensitive) [2]: R
- resistance status (resistant or sensitive) [3]: R
- resistance status (resistant or sensitive) [4]: S
- resistance status (resistant or sensitive) [5]: S
